Values quoted from earlier work in patent US20030198685A1 (priority 2002, published 2003).
Like-named read-outs stand apart in the source and are kept apart here.

Legend:
[1] = 300 mg/wk for six weeks
[2] = pharmacological doses, HIV-infected men
[3] = female rats, constant infusion
[4] = Caucasian group of hypogonadal men
[5] = nandrolone use
[6] = patients on dialysis
[7] = not given; remark: listed apart in the source
[8] = after supplementation
[9] = system: prostate and seminal vesicle weights; levator ani muscles
androgen receptor = conditions: seminal vesicle; parent versus 5-alpha-reduced metabolite
[10] = not given; remark: listed apart in the source

## C[C@]12CCC(=O)C=C1CC[C@@H]1[C@@H]2CC[C@]2(C)C(=O)CC[C@@H]12 [4-androstenedione]
supplementation
  serum testosterone: elevations

## CCCCCCCCCC(=O)O[C@H]1CC[C@H]2[C@@H]3CCC4=CC(=O)CC[C@@H]4[C@H]3CC[C@]12C [nandrolone decanoate, 19-nor-testosterone decanoate]
[1]
  body circumferences with significant increases (of fifteen): shoulders and chest
[2]
  total weight, lean body mass, body cell mass, muscle size and strength: significant gains

## C[C@]12CC[C@H]3[C@@H](CC=C4C[C@@H](O)CC[C@@]43C)[C@@H]1CC[C@@H]2O [5-androstenediol]
[3]
  proportion of protein in the body composition: increased

## CCCCCCC(=O)O[C@H]1CC[C@H]2[C@@H]3CCC4=CC(=O)CC[C@]4(C)[C@H]3CC[C@]12C [TE, testosterone enanthate]
[4]
  sexual interest and activity, spontaneous erection: significant increases
[1]
  body circumferences with significant increases (of fifteen): shoulders

## C[C@]12CC[C@H]3[C@@H](CCC4=CC(=O)CC[C@@H]43)[C@@H]1CC[C@@H]2O [nandrolone, 19-nor-testosterone]
[3]
  energy expenditure: increased
[5]
  effect on sperm: azoospermia
[6]
  lean body mass compared with placebo: increased significantly
[7]; body builders
  decrease in HDL-cholesterol: 25-27%
[7]; body builders ingesting nandrolone
  lean body mass: Superior increases

## C[C@]12CC[C@H]3[C@@H](CCC4=C[C@@H](O)CC[C@@]43C)[C@@H]1CC[C@@H]2O [4-androstenediol]
human
  human serum testosterone levels: elevations
[8]
  urine testosterone concentration relative to 4-androstenedione: 10 fold

## C[C@@H]1CC2=CC(=O)CC[C@@H]2[C@H]2CC[C@]3(C)[C@@H](O)CC[C@H]3[C@@H]21 [MENT, 7α-methyl-19-nor-testosterone]
[4]
  sexual interest and activity, spontaneous erection: significant increases
[9]; measured by prostate and seminal vesicle weights
  androgenic potency relative to testosterone: four- to five-times
[9]; measured in the levator ani muscles
  anabolic potency relative to testosterone: ten-times

## C[C@]12CC[C@H]3[C@@H](CCC4=CC(=O)CC[C@@]43C)[C@@H]1CC[C@@H]2O [testosterone]
[3]
  proportion of protein in the body composition: increased
Androgen receptor
  change of affinity to the androgen receptor on 5-alpha-reduction: increasing by seven- to eight-fold

## C[C@]12CC[C@H](O)CC1=CC[C@@H]1[C@@H]2CC[C@]2(C)C(=O)CC[C@@H]12 [DHEA, dehydro-epiandrosterone]
[10]; 50 mg dose of DHEA
  plasma testosterone: levels similar to those observed in young women
[10]; 50 mg or 200 mg DHEA
  increase of plasma delta 4-androstenedione: significant and dose dependent
  plasma estrogens, particularly estradiol: significant and dose dependent increase
[10]; 200 mg dose of DHEA
  plasma testosterone: slightly below the levels observed in normal men
[10]; both doses of DHEA
  increase of plasma dihydrotestosterone levels: small
